Tests used:
C6 glioma cells = test: Scratch wound healing assay (cell migration); type: cell-based, Rat; conditions: 100 μg/mL, 1 h, NIR-808 10 min, 24 h after scraping
Procedure: Scratch wound healing assays of the PNPs, PINPs, and ICG (100 μg/mL) were studied in C6 cells as described previously. This was followed by imaging of the cells which migrated towards the cell-free zone in the scrape at 0 and 24 h, using a brightfield inverted microscope (IX71; Olympus Corp., Tokyo, Japan). The cell migration was analyzed by measuring the dimension of the gap distance using the Adobe Photoshop CC software. The details of the process being used are provided in the Supplementary Materials. […]
nanoparticle’s aqueous solution was monitored and recorded every single min by a digital […]
1.4.5. […]
1.4.6. Scratch Assay of PINPs Determined in C6 Glioma Cells […]
1.4.7. Localized Chemo-phototoxicity of PINPs Determined in C6 Cells
Next, we quantified the synergistic chemo-phototoxicity of PINPs (10 μg/mL) in comparison to other individual moieties [PNPs (chemotherapy) and ICG (phototherapy)] in C6 cells. […]
Following day cells were treated with different formulations for 30 min. […] Cells were incubated for another 24 h and were evaluated by standard MTT assay as described […]
Figure S1. Size distribution profile of self-assembled peptide nanostructures determined in a mixture of HFIP-water at a ratio of 1:19 v/v. […]

C6 cells = test: Localized chemo-PTT/PDT toxicity, brightfield imaging; type: cell-based, Rat; conditions: 100 μg/mL, 30 min
Procedure: The localized collaborative chemo-phototoxicity of PINPs, in contrast to PNPs, was studied and then visualized using C6 cells. In short, to assess the thermal ablation effect, C6 cells (50,000/well in 6-well dishes) were seeded and cultured in complete media and they were treated with different formulations (100 μg/mL, for 30 min). The used complete growth media containing the formulations was then swapped with new phenol-free media without FBS. For a combined chemo-phototoxicity analysis, the corresponding wells containing cells were exposed to a NIR-808 laser for ~10 min, incubated for an additional 30 min, and subsequently imaged under a brightfield microscope (Olympus BX53; Tokyo, Japan).

CC1(C)C(/C=C/C=C/C=C/C=C2\N(CCCCS(=O)(=O)O)c3ccc4ccccc4c3C2(C)C)=[N+](CCCCS(=O)(=O)[O-])c2ccc3ccccc3c21 [ICG, indocyanine green]
wound closure (C6 glioma cells): ~ 100%
cell death (brightfield images) after NIR-808 exposure (C6 cells; NIR-808 ~10 min): no cell death
cell death (brightfield images) in the dark / without NIR-808 (C6 cells; no laser): no cell death

— paper PMC9863651, “Anti-Glioma Activity Achieved by Dual Blood–Brain Barrier/Glioma Targeting Naive Chimeric Peptides-Based Co-Assembled Nanophototheranostics” (Pharmaceutics, 2023)
